Measurements from ChEMBL document CHEMBL3301546, “MMV Malaria Box yeast growth screening”.

Legend:
Assay type in all cases: functional
Saccharomyces cerevisiae [1] = assay: (§1) MMV: Growth assays were conducted using the prototrophic S. cerevisiae strain JHY222. Each MMV compound (0.1 mM) was tested in minimal media containing dextrose as a carbon source (Yeast Nitrogen Base, Dextrose; YNBD). The growth rate in the presence of each MMV compound was calculated as follows: (i) the first 10 OD readings were averaged and subtracted from all OD readings of the corresponding curve to set the baseline of the growth curve to zero, and (ii) the area under the curve (AUC) was then calculated as the sum of all OD readings. […] A relative growth value was calculated as follows: AUC(DRUG) - AUC(DMSO)/AUC(DMSO); where AUC(DMSO) represents growth measured in a DMSO control well that was on the same microtiter plate of the drug-treated culture.
Saccharomyces cerevisiae [2] = assay: as §1, with “ethanol and glycerol” for “dextrose”, “as” for “as a”, “sources” for “source”, “Ethanol, Glycerol; YNBEG).” for “Dextrose; YNBD).”
Saccharomyces cerevisiae [3] = assay: as §1, with “rich” for “minimal”, “Extract, Peptone,” for “Nitrogen Base,”, “YPD).” for “YNBD).”

Structure (SMILES) | Relative Growth (Saccharomyces cerevisiae [1]) | Relative Growth (Saccharomyces cerevisiae [2]) | Relative Growth (Saccharomyces cerevisiae [3])
COCCN(C(=O)Cc1cccs1)C(C(=O)NCc1ccc(OC)cc1)c1ccc(C(C)C)cc1 (stereo not given) | 0.0051 | 0.2007 | 0.0044
Cc1cc(C=C2SC(=Nc3ccccc3)N(C3CCCC3)C2=O)c(C)n1-c1ccc(Cl)cc1 | -0.1823 | -0.2078 | 0.0207
COc1ccc2nc(N)nc(C)c2c1 | 0.0302 | -0.0106 | -0.0479
CC(C)CCNCC(O)Cn1c2ccccc2c2ccccc21.Cl (stereo not given) | -0.9941 | -1.0262 | -0.9987
Clc1ccc2c(N3CCCC3)ccnc2c1 | 0.0172 | -0.0954 | -0.0453
CCCCNc1nc(NC(C)(C)C)nc(NC(C)(C)C)n1 | -0.0768 | -0.1542 | 0.0174
Cc1sc(NC(=O)c2ccccc2)c(C(c2cccs2)N2CCN(c3ccccc3)CC2)c1C (stereo not given) | -0.0211 | 0.0234 | 0.0207
COc1ccc(NC(=O)C2c3ccccc3C(=O)N(CC(C)C)C2c2cccs2)cc1 (stereo not given) | 0.0442 | -0.1656 | -0.1052
CCOC(=O)c1c(C)n(-c2ccc(Cl)cc2)c2ccc(OC(=O)C=Cc3ccccc3)cc12 | 0.0402 | 0.0277 | -0.0067
COc1ccc(C(=O)C2CC2c2ccc(Cl)cc2)cc1 (stereo not given) | -0.0877 | -0.181 | -0.0484
Nc1ccc(-c2nc3cc(Oc4ccc(Oc5ccc6[nH]c(-c7ccc(N)cc7)nc6c5)cc4)ccc3[nH]2)cc1 | 0.0002 | -0.1502 | -0.9892
COc1ccc2c(c1)OC(O)(C(F)(F)C(F)(F)F)CC2=O (stereo not given) | 0.1423 | -0.103 | 0.0151
O=C(NCC1Cc2cccc(-c3ccncc3)c2O1)c1csc2c1CCCC2 (stereo not given) | 0.0203 | 0.1029 | 0.0158
CCCCN(CCCC)S(=O)(=O)c1ccc(NC(=O)c2ccco2)cc1 | -0.9663 | -0.9939 | -0.9715
OC1=C2C(=Nc3ccccc3SC2c2ccc(Br)cc2)c2ccccc21 (stereo not given) | 0.0198 | 0.1502 | -0.0041
COC(=O)c1ccc(Cl)c2c1C1C=CCC1C(c1cccc3ccccc13)N2 (stereo not given) | 0.053 | 0.0199 | -0.0285
c1ccc2c(NCCc3c[nH]c4ccccc34)c3ccccc3nc2c1 | -0.0449 | -0.0957 | -0.7261
CCN(CC)CCNc1ncnc2c1[nH]c1ccc(Br)cc12 | 0.101 | 0.0355 | -0.0425
O=C(NC1CCN(Cc2ccccc2)CC1)c1cc(-c2cccnc2)nc2ccc(Cl)cc12 | 0.0617 | 0.017 | -0.0203
COCCn1c(C)nc2ccccc2c1=O | 0.0485 | -0.2443 | -0.0038
CN(C)c1ccc(C=Cc2nc(=O)c3ccccc3o2)cc1 | -0.0045 | 0.0299 | -0.0054
COc1ccc(Nc2nc(N/N=C/c3ccc(O)cc3)nc(Nc3ccc([N+](=O)[O-])cc3)n2)cc1 | 0.2735 | 0.0812 | 0.0149
Cl.OC(CNCc1ccccc1)Cn1c2ccccc2c2ccccc21 (stereo not given) | 0.0554 | 0.03 | -0.0131
COc1cc2cc(C(=O)Nc3ccccc3)c(N)nc2cc1OC | -0.0986 | 0.0392 | -1.0109
FC(F)(F)c1cccc(Nc2nc(-c3ccccc3)nc3ncccc23)c1 | -0.0599 | -0.0611 | 0.1402
COc1ccc(C2c3ccc4ccccc4c3Oc3ncn(CCCn4ccnc4)c(=N)c32)cc1OC (stereo not given) | -0.111 | 0.1296 | 0.015
CCOc1cc2c(cc1OCC)C(c1cc(OC)c(O)cc1Cl)NCC2 (stereo not given) | 0.0876 | 0.0748 | -0.0054
Cl.Cn1c(=O)n(C)c2cc(CNCCNc3ccnc4cc(Cl)ccc34)ccc21 | 0.301 | 0.2785 | -0.0297

Structure (SMILES) | Relative Growth (Saccharomyces cerevisiae [1]) | Relative Growth (Saccharomyces cerevisiae [2]) | Relative Growth (Saccharomyces cerevisiae [3])
COc1ccc(CCN2C(=O)c3[nH]nc(-c4cc(Cl)c(C)cc4O)c3C2c2ccccc2F)cc1 (stereo not given) | -0.1352 | -0.023 | -0.0103
O=C(Nc1ccc(N2CCCCC2)c(Cl)c1)c1ccc(Br)o1 | -0.1788 | -0.1511 | -0.0318
CC1(c2ccccc2)Nc2ccccc2-c2nc3ccccc3n21 (stereo not given) | -0.2999 | -0.5975 | -0.9988
Cc1cc(N2CCN(C3CCCC3)CC2)n2c(nc3ccccc32)c1C#N | 0.1152 | -0.0829 | -0.0263
CCC(O)c1ccc(Br)cc1NC(=O)c1cccc(Cl)c1 (stereo not given) | 0.0885 | 0.102 | 0.0228
O=C(O)C(=O)O.Oc1ccccc1CN1CCN(C(c2ccccc2)c2ccccc2)CC1 | 0.1461 | 0.0338 | -0.1402
Cc1ccc(S(=O)(=O)c2c(COC(=O)c3cccc(C)c3)c(-c3ccccc3)nn2C)cc1 | -0.0588 | -0.0042 | 0.0124
CCc1ccc(Nc2cc(C)nc3nc(C)nn23)cc1 | -0.1477 | -0.0737 | 0.0328
CCN1CCN(Cc2ccc(NC(=O)c3cc4ccc5cccnc5c4[nH]3)cc2)CC1 | 0.0158 | -0.0693 | 0.0075
CCCCCCc1cc(O)c2c3c(c(=O)oc2c1)CCC(C)C3 (stereo not given) | -0.0738 | -0.0677 | -0.0517
c1ccc2cc3c(Nc4ccc(N5CCOCC5)cc4)ccnc3cc2c1 | 0.0841 | 0.2097 | 0.0179
CSc1ccccc1C(=O)Nc1nc(-c2ccccn2)cs1 | -0.0928 | -0.2282 | -0.0643
CCOC(=O)C1=C(C)N=c2sc(=Cc3cc(Cl)ccc3O)c(=O)n2C1c1ccc(OC)cc1 (stereo not given) | 0.1077 | 0.0816 | -0.1268
CCOc1ccc2nc(C)cc(Nc3ccc(N(C)C)cc3)c2c1.Cl | -0.1579 | -0.2064 | -0.2818
Oc1ccc(Cl)cc1CNc1nc2ccccc2[nH]1 | -0.0661 | -0.0134 | -0.0141
CC(=O)c1ccc(NC(=O)CSc2nc(-c3ccccc3Cl)ns2)cc1 | 0.0088 | 0.0011 | -0.0294
CCc1ccc(Nc2cc(C)c3ccc(O)cc3n2)cc1.Cl | 0.1514 | 0.0748 | -0.0071
O=[N+]([O-])c1ccc(C=NNc2nc3ccccc3[nH]2)cc1 | -1.0011 | -1.0063 | -0.6981
COc1ccc2nc(C)cc(Nc3cccc(O)c3)c2c1.Cl | 0.0539 | 0.0008 | -0.0539
O=C(CCc1ccco1)NC1CCN(CC2(c3ccc(Cl)cc3)CCC2)CC1 | 0.003 | 0.0483 | -0.0017
CCOc1cc(Cl)c(C(C)NC(=O)c2cccc(OC)c2)cc1OCC (stereo not given) | -0.1186 | -0.0623 | -0.0293
CCOc1cc(Cl)c(C(C)NC(=O)c2ccccc2)cc1OCC (stereo not given) | -0.0221 | -0.1365 | 0.0477
CCOc1ccc(Nc2ccnc3cc(Cl)ccc23)cc1 | 0.0274 | 0.0427 | 0.0185
Nc1nc(Nc2cccc(F)c2)nc2ccccc12 | -0.0889 | -0.012 | -0.0359
COc1ccc(C(=O)C(CCC(CNC(C)(C)C)C(=O)c2ccc(OC)cc2)CNC(C)(C)C)cc1 (stereo not given) | -0.0754 | -0.4347 | -0.0341
COc1cc(-c2nc(-c3ccc(Sc4ccccc4)cc3)c(-c3ccccc3)[nH]2)cc(OC)c1O | -0.0129 | -0.2127 | -0.0314
Cc1ccc(-c2nc3ccccc3o2)cc1NCc1cc(Cc2ccccc2)ccc1O | 0.0201 | -0.1416 | -0.0705
